The values that follow come from PMC3539403, “Molecular Characterization of Lipopolysaccharide Binding to Human α-1-Acid Glycoprotein” (Journal of Lipids, 2012).

Entries after “also recorded” stand apart in the source; their conditions may differ. Read-outs that look alike come from different tables or passages of the source.

For one series, the system named is HEK293 cells. The series can be described thus: Cytotoxicity of LPS to HEK293 cells (Alamar Blue cell viability), with or without AGP. It is filed as cell-based. The conditions noted are these: LPS 100 μg/mL, AGP 0-1 mg/mL. Here is the method:
HEK293 cell line was purchased from American Type Culture Collection (ATCC). The cells were cultured in DMEM (Invitrogen, Australia) containing 10% fetal bovine serum at 37°C, 5% CO2. Serum-free media were used in cytotoxicity assays. Cytotoxicity of LPS to HEK293 cells was determined using Alamar Blue cell viability reagent (Invitrogen, Australia). In brief, HEK293 cells were seeded as 2 × 10^4 cells per well in a clear 96-well plate and incubated for 24 hr at 37°C, 5% CO2. Then the media were replaced with serum-free media, which contained AGP and LPS (100 μg/mL). After a 24 hr incubation, 10 μL of Alamar Blue reagent were added per well and incubated at 37°C for 1 hr. Then the fluorescence intensity was read using Polar star Omega with excitation/emission wavelengths of 560/590.

A short description of series [1]: LPS binding affinity of plasma binding proteins. Particulars: AGP, this study's SPR data.
In another series the test system is K. pneumoniae. More on the design: method as in PMID 10809735. Particulars: intraperitoneal, 10 mg, 2 h prior to lethal challenge of K. pneumoniae; cited from earlier work.
The test system of series [2] is human AGP. The series can be described thus: SPR assay of AGP binding to lipid A/Kdo2-lipid A in DMPC hybrid SUV bilayer (L1 chip). The conditions noted are these: 10% (mol/mol) lipid in DMPC bilayer; Kdo2-lipid A response at AGP concentrations higher than 7 μM. The procedure: In the case of lipid A and Kdo2-lipid A binding, a L1 sensor chip was used (GE Health Care, Melbourne Australia). Small unilamellar vesicles (SUVs) were prepared in PBS by sonication and extrusion. Lipids (DMPC, lipid A, and Kdo2-lipid A) were dissolved in ethanol-free chloroform in 25 mL round-bottom flasks. 10% (mol/mol) of lipid A or Kdo2-lipid A was added into DMPC solution to make 10% lipid A/Kdo2-lipid A-DMPC mixtures, which were then deposited as a thin film by removal of the solvent (chloroform) under reduced pressure on a rotary evaporator and dried under high vacuum for at least 2 hours. PBS was then added into each flask to give a 1 mM suspension, which was sonicated 5 min for 5 times. […] The SUVs were then injected into the flow cells of the L1 sensor chip for 2000 sec at a low flow rate of 2 μL/min to form a bilayer membrane model on the chip surface. Then, a series of AGP solutions was injected across the flow cells at a flow rate of 30 μL/min, having an injection phase of 180 s and a dissociation phase of 300 s. A regeneration step was added before and after every cycle using 40 mM octyl-glucoside, which cleans the chip surface for a new cycle. Pure DMPC bilayer was applied as a reference and all data used in analysis were reference-subtracted.
On the technique in general: SPR reads the build-up and loss of mass on a sensor chip optically.

Series [3] deals with human AGP. The series can be described thus: Fluorometric assay of FITC-E. coli O111:B4 LPS binding to AGP. The conditions noted are these: chlorpromazine 20 μM final concentration; FITC-LPS 5 μM, AGP 25 μM. Here is the method:
[…] Fluorescence was measured using a Cary Eclipse Fluorescence spectrophotometer (Varian, Mulgrave, VIC, Australia) set at an excitation wavelength specific for the FITC fluorophore (Exλ 494 nm). Slit widths were set to 5 nm for both the excitation and emission monochromators. The emission spectrum was collected in the 500→650 nm range.

Series [4] relates to meningococcal endotoxemia mouse model. More on the design: method as in PMID 9179623. Particulars: intraperitoneal, 8 mg, 2 h prior to LPS challenge; cited from earlier work.
Details of series [5]: method as in PMID 12887306, PMID 11739189. Particulars: cited from earlier work.

Consider “AGP: human α-1-acid glycoprotein from plasma, F1:S:A variants 40:30:30”, for which the “effect of AGP on the cytotoxic effect of LPS” value in the series with HEK293 cells was “ameliorated in a concentration-dependent manner”. Also, the LPS binding affinity result in series [1] is “high micromolar”. Besides, the survival of mice result with K. pneumoniae was “increased the survival of mice”.
Regarding diphosphoryl lipid A, the “specific AGP binding to lipid in hybrid SUVs” value in the series with human AGP [2] is “no specific AGP binding detected”.
Take `CCCCCCCCCCCCCC(=O)O[C@H](CCCCCCCCCCC)CC(=O)O[C@@H]1[C@@H](NC(=O)C[C@@H](CCCCCCCCCCC)OC(=O)CCCCCCCCCCC)[C@H](OC[C@H]2O[C@H](OP(=O)(O)O)[C@H](NC(=O)C[C@H](O)CCCCCCCCCCC)[C@@H](OC(=O)C[C@H](O)CCCCCCCCCCC)[C@@H]2O)O[C@H](CO[C@]2(C(=O)O)C[C@@H](O[C@]3(C(=O)O)C[C@@H](O)[C@@H](O)[C@@H]([C@H](O)CO)O3)[C@@H](O)[C@@H]([C@H](O)CO)O2)[C@H]1OP(=O)(O)O` [Kdo2-lipid A]: the “specific AGP binding to lipid in hybrid SUVs” value in the series on human AGP [2] is reported as “dose-dependent response; also recorded: very weak”.
In the case of `CN(C)CCCN1c2ccccc2Sc2ccc(Cl)cc21` [chlorpromazine], in the series on human AGP [3], the “change in fluorescence emission of the FITC-LPS:AGP complex” value is recorded as “decrease in fluorescence emission”.

B1: bovine AGP: bovine α-1-acid glycoprotein (protein, UniProt Q3SZR3 19-202, looked up)
Alpha-1-acid glycoprotein: QSPECANLMTVAPITNATMDLLSGKWFYIGSAFRNPEYNKSARAIQAAFFYLEPRHAEDKLITREYQTIEDKCVYNCSFIKIYRQNGTLSKVESDREHFVDLLLSKHFRTFMLAASWNGTKNVGVSFYADKPEVTQEQKKEFLDVIKCIGIQESEIIYTDEKKDACGPLEKQHEEERKKETEAS
As for B1, the protection against sepsis entry in series [4] was “protect against sepsis”.

B2: LBP: lipopolysaccharide-binding protein, LPS-specific plasma binding protein (protein, UniProt P18428 26-481, looked up)
Lipopolysaccharide-binding …: ANPGLVARITDKGLQYAAQEGLLALQSELLRITLPDFTGDLRIPHVGRGRYEFHSLNIHSCELLHSALRPVPGQGLSLSISDSSIRVQGRWKVRKSFFKLQGSFDVSVKGISISVNLLLGSESSGRPTVTASSCSSDIADVEVDMSGDLGWLLNLFHNQIESKFQKVLESRICEMIQKSVSSDLQPYLQTLPVTTEIDSFADIDYSLVEAPRATAQMLEVMFKGEIFHRNHRSPVTLLAAVMSLPEEHNKMVYFAISDYVFNTASLVYHEEGYLNFSITDDMIPPDSNIRLTTKSFRPFVPRLARLYPNMNLELQGSVPSAPLLNFSPGNLSVDPYMEIDAFVLLPSSSKEPVFRLSVATNVSATLTFNTSKITGFLKPGKVKVELKESKVGLFNAELLEALLNYYILNTFYPKFNDKLAEGFPLPLLKRVQLYDLGLQIHKDFLFLGANVQYMRV
As to B2, the LPS binding affinity result in series [5] is recorded as “nanomolar”.

B3: BPI: bactericidal/permeability-increasing protein (protein, UniProt P17213 32-487, looked up)
Bactericidal …: VNPGVVVRISQKGLDYASQQGTAALQKELKRIKIPDYSDSFKIKHLGKGHYSFYSMDIREFQLPSSQISMVPNVGLKFSISNANIKISGKWKAQKRFLKMSGNFDLSIEGMSISADLKLGSNPTSGKPTITCSSCSSHINSVHVHISKSKVGWLIQLFHKKIESALRNKMNSQVCEKVTNSVSSELQPYFQTLPVMTKIDSVAGINYGLVAPPATTAETLDVQMKGEFYSENHHNPPPFAPPVMEFPAAHDRMVYLGLSDYFFNTAGLVYQEAGVLKMTLRDDMIPKESKFRLTTKFFGTFLPEVAKKFPNMKIQIHVSASTPPHLSVQPTGLTFYPAVDVQAFAVLPNSSLASLFLIGMHTTGSMEVSAESNRLVGELKLDRLLLELKHSNIGPFPVELLQDIMNYIVPILVLPRVNEKLQKGFPLPTPARVQLYNVVLQPHQNFLLFGADVVYK
Consider B3, for which the LPS binding affinity entry in series [5] is “nanomolar”.
